Type in all cases: cell-based
In assay [1] the test system is antiestrogen resistant LCC9 cells. In words: Crystal violet cell viability assay, antiestrogen resistant LCC9 cells. The note with it: 72 hours, normalized to vehicle-treated cells, compared with NPPTA. As for the experimental part:
To measure cell viability, antiestrogen resistant LCC9 cells were plated in 96-well plastic tissue culture plates at a density of 5×10^3 cells/well. Twenty-four hours after plating, cells were treated with 3-naphthoyl-1,1,1-trifluoroacetone (NPPTA) and the analogs (i.e., Compound JS-011, Compound JS-012, Compound JS-013, Compound JS-014, Compound JS-015, Compound JS-020). After 72 hours, the cell culture media was removed and plates were stained with […] of a solution containing 0.5% crystal violet and 25% methanol, rinsed with deionized water, dried overnight, and resuspended in […] citrate buffer (0.1 M sodium citrate in 50% ethanol) to assess plating efficiency. Intensity of crystal violet staining, assessed at 570 nm and quantified using a Vmax Kinetic Microplate Reader and Softmax software (Molecular Devices Corp., Menlo Park, Calif.), was directly proportional to cell number. Data were normalized to vehicle-treated cells and are presented in FIG. 8 as the mean±SE from representative experiments.

For assay [2], the system named is MCF7/LCC1 antiestrogen-responsive breast cancer cells. In words: Crystal violet cell proliferation assay, MCF7/LCC1 cells (combination with antiestrogens). To be noted: 72 h, >1.0 indicates synergistic interaction. As for the experimental part:
(§1) Compound Sd-6 was tested in a dose-response assay using different breast cancer cell lines, including MCF7/LCC1, MCF7/LCC9, T47D, and MCF-7. MCF7/LCC1 is an ERα-positive estrogen-independent, antiestrogen-responsive breast cancer cell line. MCF7/LCC9 is an ERα-positive estrogen-independent, antiestrogen-resistant breast cancer cell line. MCF- is an ERα-positive estrogen-dependent, antiestrogen-responsive breast cancer cell line. Cells were first plated in 96-well plastic tissue culture plates (10,000 cells per well). The cells were treated with 500 nM of Compound Sd-6 or the vehicle alone (DMSO) for 48 h. Following treatment, the cells were washed with PBS, stained with a crystal violet staining solution, and allowed to dry for 48-72 hrs. After drying, sodium citrate buffer was added to each well and allowed to incubate for 5 min at room temperature. The absorbance was measured at 450 nm using a microplate reader (Biorad; Hercules, Calif.).
(§2) Compound Sd-6 was tested in a dose-response assay using MCF7/LCC1 antiestrogen-responsive breast cancer cells and MCF7/LCC9 antiestrogen-resistant breast cancer cells. Cells were first plated in 96-well plastic tissue culture plates (10,000 cells per well). […] Following treatment, cell proliferation was determined using a crystal violet assay as described above. […]

Assay [3] relates to MCF7/LCC9 antiestrogen-resistant breast cancer cells. In words: Crystal violet cell proliferation assay, MCF7/LCC9 cells (combination with antiestrogens). The note with it: 10 μM Compound Sd-6 combined with 100 nM Faslodex/ICI 182,780 (ICI), 72 h, >1.0 indicates synergistic interaction. As for the experimental part: as §1, §2
For assay [4], the system named is MCF 10A, a non-breast cancer cell line. In words: Crystal violet dose-response cell proliferation assay, MCF 10A control cells. The note with it: MCF 10A cells; 10 μM, 25 μM or 50 μM for 72 h. As to the method: as §1
Compound Sd-6 was tested in a dose-response assay using different breast cancer cell lines, including MCF7/LCC1, MCF7/LCC9, T47D, MCF-7, MCF-7/RR, LY2, and MDA-MB-231. MCF 10A, a non-breast cancer cell line, served as the control. The cells were first plated in 96-well plastic tissue culture plates (10,000 cells per well). […] Following treatment, cell proliferation was determined using a crystal violet assay as described in Example 1.

For `O=C(CSc1nc(-c2cccnc2)n[nH]1)Nc1ccc(Oc2ccc(Cl)cc2)cc1` [JS-014], the “Inhibition of LCC9 cells (cell viability, crystal violet)” value in assay [1] was “effective, and more potent than NPPTA”.
On the same count and under the same terms, in the case of `O=C(CSc1nc(-c2cccnc2)n[nH]1)Nc1ccc(Oc2ccc(C(F)(F)F)cc2)cc1` [JS-020] it was “effective, and more potent than NPPTA”.
Take `O=C(CSc1nc(-c2cccnc2)n[nH]1)Nc1ccc(Oc2ccccc2)cc1` [Compound Sd-6]: the “RI value (Sexp/Sobs) for inhibition of cell proliferation” value in assay [2] (10 μM Compound Sd-6 combined with 100 nM Faslodex/ICI 182,780 (ICI)) is on record as 1.44; in assay [2] (10 μM Compound Sd-6 combined with 100 nM Tamoxifen (TAM)) it was 1.82; in assay [3] it was 1.27. For the same compound, the “Response of relative cell proliferation to compound” value in assay [4] was “did not respond”.

The record behind these values is patent publication US10806725B2, “Small molecule inhibitors of XBP1 splicing” (GEORGETOWN UNIVERSITY, priority 2011, dated 2020).
